Patent US9447051B2, “Diaminopyrimidines and uses thereof” (AbbVie inc., priority 2012, dated 2016)

Test system: RSV (Group A, Long Strain)
Assay: Antiviral (RSV) assay: cytopathetic effect (CPE) protection assay in HEp-2 cells, MTT readout
Assay type: cell-based, human respiratory syncytial virus (RSV)
Conditions: Table 1, 0.2 MOI RSV, 4 days incubation, protection from CPE
Procedure: HEp-2 cells and RSV (Group A, Long Strain) were obtained from the American Type Culture Collection (Manassas, Va.). A cytopathetic effect (CPE) protection assay was performed to determine the ability of a compound to protect the cells from viral infection and thus the CPE induced by viral infection. 96-well plates were first seeded with 3×10^3 HEp-2 cells per well in Dulbecco's modified Eagle's medium (DMEM) containing 10% fetal bovine serum (FBS). One day after the cells were seeded, they were preincubated with serial dilutions of compounds prepared in 100 μL assay medium (DMEM mixed with F12 medium at a 1:1 ratio, supplemented with 2% FBS and 1 mM sodium pyruvate) for 1 hour at 37° C. 100 μL of assay medium containing 0.2 multiplicity of infection (MOI) of RSV was then added to each well of cells. In addition to wells containing infected cells incubated with compounds, each plate also contained replicates of two kinds of controls: (1) Virus control contained cells infected with 0.2 MOI of RSV in assay medium, (2) Uninfected cell control contained cells incubated with assay medium only. After 4 days of incubation at 37° C., the viability of cells was assessed using MTT (Thiazolyl blue tetrazolium bromide, Sigma). A stock solution of MTT, at a concentration of 4 mg/mL in phosphate-buffered saline, was added to all wells at 25 μL per well. Plates were further incubated for 4 hours, and each well was then treated with 50 μL of a solution containing 20% sodium dodecyl sulfate (SDS) and 0.02 N HCl. After an overnight incubation, the plates were measured on a BioTek® microtiter plate reader at wavelengths of 570 nm and 650 nm. The MTT detection is based on the fact that viable (uninfected) cells can reduce the tetrazolium salts into colored formazan products, which can then be quantitated by spectrometry. […] Compounds were tested to determine both their antiviral and toxicity to determine their therapeutic window. Determination of the EC50 and TD50 of these active compounds were repeated one additional time to confirm the window.

[1] = human respiratory syncytial virus, HEp-2, 96 h

Compound | EC50 [1] [nM] | EC50 [nM]
Cc1nc(NCc2ccccn2)nc(Nc2ccccc2OC(F)(F)F)c1C [Example 59, 5,6-dimethyl-N^2-(pyridin-2-ylmethyl)-N^4-[2-(trifluoromethoxy)phenyl]pyrimidine-2,4-diamine] | 30 | –
Cc1nc(NCc2ccccn2)nc(Nc2ccc(F)cc2)c1C [Example 50, N^4-(4-fluorophenyl)-5,6-dimethyl-N^2-(pyridin-2-ylmethyl)pyrimidine-2,4-diamine] | 100 | –
Cc1nc(NCc2ccccn2)nc(NC2CCCCC2C)c1C (stereo not shown) [Example 40, 5,6-dimethyl-N^4-(2-methylcyclohexyl)-N^2-(pyridin-2-ylmethyl)pyrimidine-2,4-diamine] | 65 | –
Cc1cccc(Nc2nc(NCc3ccccn3)nc(C)c2C)c1 [Example 69, 5,6-dimethyl-N^4-(3-methylphenyl)-N^2-(pyridin-2-ylmethyl)pyrimidine-2,4-diamine] | 110 | –
Cc1nc(NCc2ccccn2)nc(NC2CCC(O)C2)c1C (stereo not shown) [Example 34, 3-({5,6-dimethyl-2-[(pyridin-2-ylmethyl)amino]pyrimidin-4-yl}amino)cyclopentanol] | 4300 | –
Cc1nc(NCc2ccccn2)nc(NC2CCCC2)c1C [Example 29, N^4-cyclopentyl-5,6-dimethyl-N^2-(pyridin-2-ylmethyl)pyrimidine-2,4-diamine] | 920 | –
Cc1nc(NC(C)c2ccccn2)nc(NC2CCCCC2)c1C (stereo not shown) [Example 87, N^4-cyclohexyl-5,6-dimethyl-N^2-[1-(pyridin-2-yl)ethyl]pyrimidine-2,4-diamine] | > 32000 | –
Cc1nc(NCc2ccccn2)nc(NC2CCC(C)(O)CC2)c1C (stereo not drawn) [Example 38, trans-4-({5,6-dimethyl-2-[(pyridin-2-ylmethyl)amino]pyrimidin-4-yl}amino)-1-methylcyclohexanol] | – | 2400
Cc1nc(NCc2ccccn2)nc(NC2CCCC(C)C2C)c1C (stereo not shown) [Example 41, N^4-(2,3-dimethylcyclohexyl)-5,6-dimethyl-N^2-(pyridin-2-ylmethyl)pyrimidine-2,4-diamine] | 40 | –
CCc1ccnc(CNc2nc(C)c(C)c(NC3CCC(F)(F)CC3)n2)c1 [Example 90, N^4-(4,4-difluorocyclohexyl)-N^2-[(4-ethylpyridin-2-yl)methyl]-5,6-dimethylpyrimidine-2,4-diamine] | 510 | –
Cc1nc(NCc2ccccn2)nc(Nc2ccccc2Cl)c1C [Example 66, N^4-(2-chlorophenyl)-5,6-dimethyl-N^2-(pyridin-2-ylmethyl)pyrimidine-2,4-diamine] | 34 | –
Cc1nc(NCc2ccccn2)nc(Nc2nncs2)c1C [Example 94, 5,6-dimethyl-N^2-(pyridin-2-ylmethyl)-N^4-(1,3,4-thiadiazol-2-yl)pyrimidine-2,4-diamine] | 2400 | –
Cc1nc(NCc2ccccn2)nc(NC2CCc3ccccc32)c1C (stereo not shown) [Example 33, N^4-(2,3-dihydro-1H-inden-1-yl)-5,6-dimethyl-N^2-(pyridin-2-ylmethyl)pyrimidine-2,4-diamine] | 180 | –
Cc1nc(NCc2ccccn2)nc(Nc2ccc(OC(F)(F)F)cc2)c1C [Example 56, 5,6-dimethyl-N^2-(pyridin-2-ylmethyl)-N^4-[4-(trifluoromethoxy)phenyl]pyrimidine-2,4-diamine] | 400 | –
Cc1nc(NCc2ccc(C(F)(F)F)cc2)nc(NC2CCCCC2)c1C [Example 12, N^4-cyclohexyl-5,6-dimethyl-N^2-[4-(trifluoromethyl)benzyl]pyrimidine-2,4-diamine] | > 950 | –
Cc1nc(NCc2ccccn2)nc(NC2CCS(=O)(=O)C2)c1C (stereo not shown) [Example 70, N^4-(1,1-dioxidotetrahydrothiophen-3-yl)-5,6-dimethyl-N^2-(pyridin-2-ylmethyl)pyrimidine-2,4-diamine] | 950 | –
Cc1nc(NCc2ccccn2)nc(NC2CC3CCC2C3)c1C (stereo not shown) [Example 39, N^4-(bicyclo[2.2.1]hept-2-yl)-5,6-dimethyl-N^2-(pyridin-2-ylmethyl)pyrimidine-2,4-diamine] | 1250 | –
COc1cccc(CNc2nc(C)c(C)c(NC3CCCCC3)n2)c1 [Example 25, N^4-cyclohexyl-N^2-(3-methoxybenzyl)-5,6-dimethylpyrimidine-2,4-diamine] | > 3400 | –
Cc1nc(NCc2cn(C)cn2)nc(NC2CCCCC2)c1C [Example 24, N^4-cyclohexyl-5,6-dimethyl-N^2-[(1-methyl-1H-imidazol-4-yl)methyl]pyrimidine-2,4-diamine] | 45 | –

Compound | EC50 [1] [nM] | EC50 [nM]
Cc1nc(NCc2ccccn2)nc(N[C@H]2CCCC[C@H]2CO)c1C (racemic) [Example 43, rac-[(1R,2S)-2-({5,6-dimethyl-2-[(pyridin-2-ylmethyl)amino]pyrimidin-4-yl}amino)cyclohexyl]methanol] | 190 | –
Cc1ccc(F)cc1Nc1nc(NCc2ccccn2)nc(C)c1C [Example 71, N^4-(5-fluoro-2-methylphenyl)-5,6-dimethyl-N^2-(pyridin-2-ylmethyl)pyrimidine-2,4-diamine] | 40 | –
Cc1nc(NCc2ccccn2)nc(NC2CCC2)c1C [Example 47, N^4-cyclobutyl-5,6-dimethyl-N^2-(pyridin-2-ylmethyl)pyrimidine-2,4-diamine] | > 5300 | –
Cc1nc(NCc2ccccn2)nc(Nc2cccc(C(F)(F)F)c2)c1C [Example 54, 5,6-dimethyl-N^2-(pyridin-2-ylmethyl)-N^4-[3-(trifluoromethyl)phenyl]pyrimidine-2,4-diamine] | 25 | –
Cc1nc(NCc2ccccn2)nc(NC2CCC(C(F)(F)F)CC2)c1C (stereo not shown) [Example 31, 5,6-dimethyl-N^2-(pyridin-2-ylmethyl)-N^4-[4-(trifluoromethyl)cyclohexyl]pyrimidine-2,4-diamine] | > 9600 | –
Cc1nc(NCc2cc(C(C)(C)C)ccn2)nc(NC2CCCCC2)c1C [Example 21, N^2-[(4-tert-butylpyridin-2-yl)methyl]-N^4-cyclohexyl-5,6-dimethylpyrimidine-2,4-diamine] | > 6100 | –
Cc1nc(NCc2ccc(OC(F)(F)F)cc2)nc(NC2CCCCC2)c1C [Example 10, N^4-cyclohexyl-5,6-dimethyl-N^2-[4-(trifluoromethoxy)benzyl]pyrimidine-2,4-diamine] | > 1500 | –
Cc1nc(NCc2ccc(C(F)(F)F)cn2)nc(NC2CCCCC2)c1C [Example 20, N^4-cyclohexyl-5,6-dimethyl-N^2-{[5-(trifluoromethyl)pyridin-2-yl]methyl}pyrimidine-2,4-diamine] | > 8700 | –
Cc1ccccc1Nc1nc(NCc2ccccn2)nc(C)c1C [Example 67, 5,6-dimethyl-N^4-(2-methylphenyl)-N^2-(pyridin-2-ylmethyl)pyrimidine-2,4-diamine] | 7 | –
Cc1nc(NCc2cccnc2)nc(NC2CCCCC2)c1C [Example 6, N^4-cyclohexyl-5,6-dimethyl-N^2-(pyridin-3-ylmethyl)pyrimidine-2,4-diamine] | 240 | –
Cc1nc(NCc2ccccn2)nc(NC2CCCC(F)(F)C2)c1C (stereo not shown) [Example 80, N^4-(3,3-difluorocyclohexyl)-5,6-dimethyl-N^2-(pyridin-2-ylmethyl)pyrimidine-2,4-diamine] | 190 | –
Cc1nc(NCc2ccccn2)nc(NC2CCC(F)(F)C2)c1C (stereo not shown) [Example 78, N^4-(3,3-difluorocyclopentyl)-5,6-dimethyl-N^2-(pyridin-2-ylmethyl)pyrimidine-2,4-diamine] | 190 | –
Cc1ccc(O)c(CNc2nc(C)c(C)c(NC3CCCCC3)n2)n1 [Example 7, 2-({[4-(cyclohexylamino)-5,6-dimethylpyrimidin-2-yl]amino}methyl)-6-methylpyridin-3-ol] | > 12000 | –
Cc1nc(NCc2ccccn2)nc(Nc2ccnn2C)c1C [Example 74, 5,6-dimethyl-N^4-(1-methyl-1H-pyrazol-5-yl)-N^2-(pyridin-2-ylmethyl)pyrimidine-2,4-diamine] | 650 | –
Cc1cc(F)c(F)cc1Nc1nc(NCc2ccccn2)nc(C)c1C [Example 73, N^4-(4,5-difluoro-2-methylphenyl)-5,6-dimethyl-N^2-(pyridin-2-ylmethyl)pyrimidine-2,4-diamine] | 24 | –
Cc1nc(NCc2ccccn2)nc(NC2CCCCC2O)c1C (stereo not shown) [Example 42, 2-({5,6-dimethyl-2-[(pyridin-2-ylmethyl)amino]pyrimidin-4-yl}amino)cyclohexanol] | 300 | –
Cc1nc(NCc2ccccn2)nc(NC2CCC(C)(O)CC2)c1C (stereo not drawn) [Example 37, cis-4-({5,6-dimethyl-2-[(pyridin-2-ylmethyl)amino]pyrimidin-4-yl}amino)-1-methylcyclohexanol] | – | 360
Cc1nc(NCc2ccccn2)nc(NCc2ccc(F)cc2)c1C [Example 97, N^4-(4-fluorobenzyl)-5,6-dimethyl-N^2-(pyridin-2-ylmethyl)pyrimidine-2,4-diamine] | 140 | –
